IC50 data for ten compounds are collected here from US6500815B1, “Substituted 11.beta steroid derivatives, method for preparing same and intermediates of said method, use as medicine and compositions containing them” (Aventis Pharma S.A., priority 1999, dated 2002).

In this assay the target is αvβ3 human receptor (vitronectin receptor) (Homo sapiens, UniProt P05106+P06756). The experiment in a line: Competition binding test: displacement of the vitronectin/vitronectin receptor (αvβ3) bond. The settings on record: human vitronectin coated at 2 μg/ml, 3 hours incubation at ambient temperature, 4B12-HRP antibody detection, OD 450 nm, read-out: Competition binding test Vn/VnR (αvβ3) IC50. As for the experimental part:
1—Study by the Products of the Invention of the Bond Displacement: Vitronectin/Vitronectin Receptor (αvβ3) Protocol 96 well MaxiSorp plates are coated overnight at 4° C., with 100 μl of human vitronectin (cf Yatohgo et al. Cell., Structure and fraction 13: 281-292 (1988) at 2 μg/ml, (dilution in coating buffer).
The following day, the wells are emptied and the ligands (vitronectin) are then fixed (see fixation buffer) for 1 hour at ambient temperature under gentle agitation. The wells are washed six times (see washing buffer), then per well and in this order the following are added:
40 μl of incubation buffer, 10 μl of the diluted product to be tested, (the products are diluted in a 50/50 mixture of DMSO-H2O) 20 μl of αvβ3 human receptor (cf Pytela et al. Methods Enzymol (1987) 144:475) (dilution in incubation buffer, to be adapted according to the batch of receptor and according to the ligand).
The ligand, the αvβ3 human receptor and the products to be studied are incubated for 3 hours at ambient temperature under gentle agitation.
The wells are again washed six times, then incubated for 2 hours at ambient temperature under gentle agitation, in the presence of 100 μl of 4B12-HRP antibody, anti-receptor coupled to a peroxydase (the 4B12-HRP antibody is diluted in incubation buffer. The dilution is to be adapted according to the batch of receptor).
The wells are then washed six times before measurement of the ligand-receptor bond done by the intermediate of a peroxydase visualizing kit (TMP Microwell Peroxydase Substrate System Kirkegaard: Ref. cat. 50-76-00). This kit contains a flask A of substrate (3,3′,5,5′-tetra-methylbenzidine at 0.4 g/l) and a flask B (H2O2 at 0.02% in Citrate/Citric acid buffer). Extemporaneously, a volume of A is mixed with a volume of B, then the reaction mixture is distributed at a rate of 100 μl/wells. The enzymatic reaction develops in 12′ for Vitronectin/αvβ3, and then its evolution is stopped by the addition of 100 μl of 1M phosphoric acid.
The optical density is measured at 450 nm. […]
coating buffer: 0.05 M carbonate, NaOH pH 9.6 fixation buffer: PBS containing 0.5% of BSA (pH 7.4) washing buffer: PBS containing 0.05% of Tween 20 (pH 7.4)
Expression of the Results: the following curve is drawn: the bonding percentage of human vitronectin as a function of the logarithm of the concentration of each product tested. For each product the IC50 is determined according to the following formula:
BO=Maximum bond in the absence of any product
Bmin=Minimum bond in the presence of the highest concentration of the product.
For `C[C@]12C[C@H](CCCCCC(=O)O)C3=C4CC/C(=N\NC(=N)N)C=C4CC[C@H]3[C@@H]1CCC2=O` [Example 5a ΔE, 3-[(Amino-iminomethyl)hydrazono]-17-oxo-estra-4,9-diene-11-beta-hexanoic Acid], the IC50 was 54 nM.

For `C[C@]12C[C@H](CCCCC(NC(=O)OCc3ccccc3)C(=O)O)C3=C4CCC(=NNC5=NCCN5)C=C4CC[C@H]3[C@@H]1CCC2=O` (mixture of isomers) [Example 2, 3-[(4,5-Dihydro-1H-imidazol-2-yl)hydrazono]-17-oxo-α-[[(phenylmethoxy)carbonyl]amino]-estra-4,9-diene-11-beta-hexanoic Acid], the IC50 worked out at 30 nM.

As to `C[C@]12C[C@H](CCCCCC(=O)O)C3=C4CCC(=NNC5=NCCN5)C=C4CC[C@H]3[C@@H]1CCC2=O` (mixture of isomers) [Example 7, 3-[(4,5-Dihydro-1H-imidazol-2-yl)-hydrazono]-17-oxo-estra-4,9-diene-11-beta-hexanoic Acid], the IC50 was found to be 25 nM.

With `CC12CC(CCCCC(NC(=O)OCc3ccccc3)C(=O)O)C3=C4CCC(=NNC5=NCCN5)C=C4CCC3C1CCC2O` (stereo not drawn) [Example 3, 3-[(4,5-Dihydro-1H-imidazol-2-yl)hydrazono]-17-hydroxy-alpha.-[[(phenylmethoxy)carbonyl]amino]-estra-4,9-diene-11-beta-hexanoic Acid], the IC50 was 70 nM.

`C[C@]12C[C@H](CCCCCC(=O)O)C3=C4CCC(=NNC(=N)N)C(Cl)=C4CC[C@H]3[C@@H]1CCC2=O` [Example 9, 3-[(Aminoiminomethyl)hydrazono]-4-chloro-17-oxo-estra-4,9-diene-11-beta-hexanoic Acid]: the IC50 worked out at 1950 nM.

`C[C@]12C[C@H](CCCCCC(=O)O)C3=C4CCC(=NNC5=NCCN5)C(Cl)=C4CC[C@H]3[C@@H]1CCC2=O` [Example 8, 4-Chloro-3-[(4,5-dihydro-1H-imidazol-2-yl)hydrazono]-17-oxo-estra-4,9-diene-11-beta-hexanoic Acid]: the IC50 was determined as 17 nM.

With `C[C@]12C[C@H](CCCCCC(=O)O)C3=C4CCC(=NNC5=NCCCN5)C=C4CC[C@H]3[C@@H]1CCC2=O` (mixture of isomers) [Example 6b 60/40, 3-[(1,4,5,6-Tetrahydro-2-pyrimidinyl)-hydrazono]-17-oxo-4,9-diene-11-beta-hexanoic Acid], the IC50 came to 38 nM.

Consider `C[C@]12C[C@H](CCCCCC(=O)O)C3=C4CC/C(=N/NC(=N)N)C=C4CC[C@H]3[C@@H]1CCC2=O` [Example 5b ΔZ, 3-[(Amino-iminomethyl)hydrazono]-17-oxo-estra-4,9-diene-11-beta-hexanoic Acid], for which the IC50 turned out to be 375 nM.

Regarding `C[C@]12C[C@H](CCCCCC(=O)O)C3=C4CCC(=NNC5=NCCCN5)C=C4CC[C@H]3[C@@H]1CCC2=O` (mixture of isomers) [Example 6a 90/10, 3-[(1,4,5,6-Tetrahydro-2-pyrimidinyl)-hydrazono]-17-oxo-4,9-diene-11-beta-hexanoic Acid], the IC50 was 20 nM.

As to `C[C@]12C[C@H](CCCCC(=O)O)C3=C4CCC(=NNC(=N)N)C=C4CC[C@H]3[C@@H]1CCC2=O` (mixture of isomers) [Example 4, 3-[(Amino-iminomethyl)hydrazono]-17-oxoestra-4,9-dien-11-beta-pentanoic Acid], the IC50 turned out to be 133 nM.
